# US20170067894A1 (priority 2014, published 2017)
# Read-outs that look alike come from different tables or passages of the source.
# Experiments:
# LuxR of Vibrio fischeri = LuxR of Vibrio fischeri (Aliivibrio fischeri, UniProt P12746, DEL21-21/INS42T/N22A/N23Y); format: cell-based; conditions: for induction of luminescence (LuxR activation) compared to 2-AA: 50 μM, 20 h of incubation, FIG. 10
# [1] = test system: LuxR-regulated luminescence of Vibrio fischeri MJ-1; format: cell-based
# Sequence of LuxR of Vibrio fischeri (P12746 with tags, fused parts or gaps DEL21-21/INS42T/N22A/N23Y): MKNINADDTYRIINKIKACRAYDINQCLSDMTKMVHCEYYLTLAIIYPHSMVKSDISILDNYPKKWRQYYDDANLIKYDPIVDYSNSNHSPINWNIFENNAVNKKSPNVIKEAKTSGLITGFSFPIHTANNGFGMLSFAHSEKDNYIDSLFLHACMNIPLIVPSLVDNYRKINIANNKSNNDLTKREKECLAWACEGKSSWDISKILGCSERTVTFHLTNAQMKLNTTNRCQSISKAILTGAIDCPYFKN
SMILES,induction of luminescence (LuxR activation) compared to 2-AA (LuxR of Vibrio fischeri),other results
Nc1ccccc1C=O [2-aminobenzaldehyde],completely abolished the induction of luminescence,
O=C(C[N+](=O)[O-])c1ccccc1 [2-nitroacetophenone],"could also activate LuxR, but to a lesser extent than 2-AA",dose dependency of LuxR activation (LuxR of Vibrio fischeri; 1-50 μM): no dose dependency; synergistic effects in the presence of AHL (LuxR of Vibrio fischeri; 1-50 μM): no dose dependency or synergistic effects in the presence of AHL were observed
CC(=O)c1cccc(N)c1 [3-aminoacetophenone],completely abolished the induction of luminescence,
CCCC(=O)CC(=O)N[C@H]1CCOC1=O [3-oxo-C6-HSL],,"affinity towards LuxR relative to 2-AA (LuxR of Vibrio fischeri; as apparent from FIGS. 4 through 9): approximately three orders of magnitude higher; luminescence of V. fischeri MJ-1 ([1]; 10 nM, FIG. 6): significant increase; luminescence of V. fischeri MJ-1 ([1]; two repeats of the experiment (data not shown)): no luminescence was measured"
CC(=O)c1ccc(N)cc1 [4-aminoacetophenone],completely abolished the induction of luminescence,
CC(=O)c1ccccc1 [acetophenone],completely abolished the induction of luminescence,
Nc1ccccc1C(=O)O [anthranilic acid],completely abolished the induction of luminescence,
COC(=O)c1ccccc1N [methyl anthranilate],completely abolished the induction of luminescence,
